Several values for one entry are separate records, joined by “and”; a condition that tells them apart may be missing. Equal values may be shown once. Read-outs that look alike come from different tables or passages of the source. Ends that are not written are not given here.
Columns and labels:
[1] = system: Salmonella enterica ssp. Typhimurium; conditions: ssp. Typhimurium
Procedure, shortened: (§1)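 MICs were measured by modified broth microdilution in Mueller Hinton medium in polypropylene plates. Peptides were diluted in 0.01% acetic acid/0.2% BSA, and inoculum was 2-7×10^5 CFU/ml from overnight culture.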

Escherichia coli UB1005 = system: Escherichia coli UB1005
Procedure, shortened: as §1

[2] = system: Pseudomonas aeruginosa PAO1 strain H103
Procedure, shortened: as §1

[3] = system: Staphylococcus epidermidis
Procedure, shortened: as §1

[4] = system: Pseudomonas aeruginosa strain H1001; assay: Assay for the cleaved (free, soluble) peptides from cellulose support, luminescence killing assay; assay type: cell-based; design: key: 1: Peptides showing stronger killing than Bac2A at a 4 to 8-fold higher dilution; Peptides showing stronger killing compared to that of Bac2A at a 4-fold higher dilution; 3: Peptides similar to Bac2A; 4: Peptides similar to Bac2A at the highest concentration but demonstrating weaker killing at a 2-fold dilution; 5: Peptides giving very weak or no killing at a 2-fold dilution; 6: Peptides with weak killing activity at the highest concentration
Procedure, shortened: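 Cellulose-synthesized peptides (amidated C-terminus, two β-alanines) cleaved by ammonia, released from punched spots 30 min at 37 °C, then serially diluted. P. aeruginosa H1001 (constitutive fliC::luxCDABE) overnight culture diluted 1:500 in LB or 100 mM Tris pH 7.3/20 mM glucose. Killing followed as time-dependent luminescence loss at 37 °C.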

[5] = system: Pseudomonas aeruginosa strain H1001 fliC::luxCDABE; assay: Luminescence-based assay for the non-cleaved (bound) peptides on cellulose membranes; assay type: cell-based
Procedure, shortened: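 Peptides remained bound to cellulose spots, which were ethanol-washed and equilibrated in 100 mM Tris pH 7.3. Constitutively lux-expressing P. aeruginosa (OD600 0.35 culture diluted 1:25) added in 10 mM Tris-HCl pH 7.3, 20 mM glucose at 37° C. Luminescence (RLU) followed over 14 time points; peptides binned into six activity classes.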

[6] = system: Staphylococcus aureus cells; assay: Membrane depolarization with membrane potential-sensitive dye diSC35; assay type: cell-based; conditions: 20 μg/ml of peptides, diSC35 release, FIG. 4
Experimental: FIG. 4 is a graphical representation showing the mechanism of action of peptides assessed by measuring the ability to depolarize Staphylococcus aureus cells using the membrane potential-sensitive dye diSC35. Either 20 μg/ml of peptides or, as a control, 29 μg/ml of gramicidin S (Gram S) were added. Lines are smoothed using a polynomial (to the 6th power) function.

[7] = system: Enterococcus faecalis ATCC29212; conditions: ATCC29212
Procedure, shortened: as §1

[8] = system: Staphylococcus aureus ATCC25923; conditions: ATCC25923
Procedure, shortened: as §1

Candida albicans = system: Candida albicans
Procedure, shortened: as §1

[9] = system: THP-1 macrophage-like cells; conditions: at 100 μg/ml
Experimental: THP1 cells were cultured in RPMI 1640 medium (supplemented with 10% (v/v) FCS, 1% L-glutamine, and 1 nM sodium pyruvate) in E-toxa-clean (Sigma-Aldrich, Oakville, Ontario, Canada)-washed, endotoxin-free bottle. THP1 cells were counted and 250 μl per well of 2-4×10^4 cells/ml were transferred into a 96 well tissue cultured treated polystyrene microtiterplate (Beckton Dickinson, Franklin Lakes, USA). In addition PMA was added (1.3 nM) and the cells were incubated for three days. After three days the medium were exchanged and Pseudomonas aeruginosa LPS and the peptides were added. The incubation time was four hours and the supernatant was frozen at −20° C. The cells were stained with Tryphan Blue for 2 minutes and washed with PBS two times. The viability of the cells was determined by counting the stained cells over the unstained.
Cytotoxicity was assessed using PMA-treated, human macrophage THP-1 cell line (FIG. 5).

Substance: RLARIVVIRVAR-NH2 [Bac2A, reference compound]
- MIC S. Typhim. [1]: 34 µg/mL
- MIC S. typhimurium [1]: 34 µg/mL
- MIC E. coli (Escherichia coli UB1005; Table 4a, Mueller-Hinton media, average of three measurements): 17 µg/mL
- MIC E. coli (Escherichia coli UB1005; Table 6): 17 µg/mL
- difference in MIC between high and low Mg2+ conditions ([2]; P. aeruginosa, Table 5): 4 fold
- MIC P. aerug ([2]; PAO1): 50 µg/mL
- MIC P. aeruginosa ([2]; PAO1): 50 µg/mL
- MIC P. aeruginosa Muller Hinton Media ([2]; PAO1): 54 µg/mL
- MIC P. aeruginosa With 10 μM Mg ([2]; PAO1): 18 µg/mL
- MIC P. aeruginosa With 2 mM Mg ([2]; PAO1): 73 µg/mL
- MIC S. epi. [3]: 4 µg/mL
- MIC S. epidermidis [3]: 4 µg/mL
- Soluble Class ([4]; Table 5, free peptides): 3
- Activity Class Soluble ([4]; free (cleaved) peptides, killing relative to Bac2A): 3
- Luminescence at the given time in minutes: 0 ([5]; cellulose-bound peptide, 0 min, listed as Bac001): 4374 RLU and 4041 RLU and 4234 RLU and 4425 RLU and 4530 RLU
- Luminescence at the given time in minutes: 20 ([5]; cellulose-bound peptide, 20 min, listed as Bac001): 6729 RLU and 6352 RLU and 6373 RLU and 6323 RLU and 6411 RLU
- Luminescence at the given time in minutes: 40 ([5]; cellulose-bound peptide, 40 min, listed as Bac001): 2607 RLU and 2249 RLU and 1840 RLU and 2721 RLU
- Luminescence at the given time in minutes: 100 ([5]; cellulose-bound peptide, 100 min, listed as Bac001): 48 RLU and 35 RLU and 50 RLU and 53 RLU and 57 RLU
- Activity Class bound ([5]; uncleaved cellulose-bound peptides): 3 (Peptides similar to Bac2A resulting in lux values of less than 500 after 240 min.)
- inhibition of light production (killing) over 10 consecutive cycles ([5]; uncleaved peptide spots re-used 10 times, 40 h exposure to bacteria per cycle): very similar inhibition of light production (killing) was observed
- ability to depolarize the membrane of S. aureus [6]: able to depolarize the membrane of S. aureus very quickly

Substance: RRAAVVLIVIRR-NH2 (C-terminus assumed) [Bac020]
- MIC E. faecalis [7]: 8 µg/mL
- MIC S. typhimurium [1]: 18 µg/mL
- MIC P. aeruginosa ([2]; PAO1): 7 µg/mL
- MIC P. aeruginosa Muller Hinton Media ([2]; PAO1): 7 µg/mL
- MIC P. aeruginosa With 10 μM Mg ([2]; PAO1): 2 µg/mL
- MIC P. aeruginosa With 2 mM Mg ([2]; PAO1): 8 µg/mL
- MIC against P. aeruginosa ([2]; PAO1): 7 µg/mL
- MIC S. aureus [8]: 5 µg/mL
- MIC S. epidermidis [3]: 1.5 µg/mL
- MIC C. albicans (Candida albicans): 11 µg/mL
- cytotoxic effect against a human macrophage cell line [9]: no cytotoxic effect

Source: patent publication US20080207522A1, “Antimicrobial Peptides” (priority 2004, published 2008)
